Target: T1, COX-2 (cyclooxygenase-2) (Homo sapiens, UniProt P35354)
T1 sequence (P35354 18-604): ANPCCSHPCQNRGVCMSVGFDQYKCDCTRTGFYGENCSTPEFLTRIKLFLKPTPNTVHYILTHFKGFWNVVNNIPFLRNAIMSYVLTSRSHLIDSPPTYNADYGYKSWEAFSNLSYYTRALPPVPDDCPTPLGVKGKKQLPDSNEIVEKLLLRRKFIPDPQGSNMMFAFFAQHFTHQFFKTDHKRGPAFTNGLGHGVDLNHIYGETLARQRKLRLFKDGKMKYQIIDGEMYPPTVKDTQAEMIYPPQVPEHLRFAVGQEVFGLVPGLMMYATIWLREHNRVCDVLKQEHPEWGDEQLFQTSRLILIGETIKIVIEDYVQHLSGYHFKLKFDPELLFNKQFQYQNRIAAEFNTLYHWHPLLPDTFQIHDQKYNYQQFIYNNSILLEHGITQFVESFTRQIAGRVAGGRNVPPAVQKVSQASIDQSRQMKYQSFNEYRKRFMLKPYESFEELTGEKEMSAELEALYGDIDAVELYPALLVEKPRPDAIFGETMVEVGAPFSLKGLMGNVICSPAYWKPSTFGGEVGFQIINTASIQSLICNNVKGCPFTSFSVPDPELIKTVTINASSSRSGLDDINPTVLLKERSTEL
Assay type: biochemical
Settings: read-out: Ki

Cc1ccc(-c2cc(C[Se]C#N)nn2-c2ccc(S(N)(=O)=O)cc2)cc1 [selenocoxib-2, 4-(3-Selenocyanatomethyl-5-p-tolyl-1-yl)-benzenesulfonamide]
KI (inactivation): 0.73 µM

C[Se]Cc1ccc(-c2cc(C(F)(F)F)nn2-c2ccc(S(N)(=O)=O)cc2)cc1 [selenocoxib-3, 4-[5-(4-Methylseleanylmethyl-phenyl)-3-trifluoromethyl-pyrazol-1-yl]-benezenesulfonamide]
KI (inactivation): 2.4 µM

— article PMC3004533 (Chemico-biological interactions, 2010)
